For assay [1], the target named is T1, M3 (Homo sapiens, UniProt P20309).
T1 construct: CEREP (contract screening)
As to the kind of experiment: CEREP broad receptor screening panel. As to conditions: CPD 1 10 µM (table title), duplicate. Type of assay: binding. As to the method: (§1) Additional selectivity assessment of CPD 1 was performed at CEREP. Methods are available for the multiple assays utilized at http://www.cerep.fr/cerep/users/pages/catalog/assay/catalog.asp. The specific ligand binding to the receptors is defined as the difference between the total binding and the non-specific binding determined in the presence of an excess of unlabeled ligand.

Assay [2] has as its target T2, NE transporter (Homo sapiens, UniProt P23975).
T2 construct: CEREP (contract screening)
Nature of the assay: CEREP broad receptor screening panel. Type of assay: binding. As to conditions: CPD 1 10 µM (table title), duplicate. The procedure: as §1

The target of assay [3] is T3, D2s (Homo sapiens, UniProt P14416).
T3 construct: CEREP
Nature of the assay: CEREP broad receptor screening panel. It counts as binding. The settings on record: CPD 1 10 µM (table title), duplicate. As to the method: as §1

Assay [4] concerns the target T4, H1 (Homo sapiens, UniProt P35367).
T4 construct: CEREP
As to the kind of experiment: CEREP broad receptor screening panel. It counts as binding. The settings on record: CPD 1 10 µM (table title), duplicate. As to the method:
as §1

Assay [5] concerns the target T5, D4.4 (Homo sapiens, UniProt P21917).
T5 construct: CEREP
Nature of the assay: CEREP broad receptor screening panel. Type of assay: binding. As to conditions: CPD 1 10 µM (table title), duplicate. The procedure:
as §1

Assay [6] deals with T6, D5 (Homo sapiens, UniProt P21918).
T6 construct: CEREP
As to the kind of experiment: CEREP broad receptor screening panel. It counts as binding. As to conditions: CPD 1 10 µM (table title), duplicate. The procedure: as §1

For assay [7], the system named is Na+ Channel. Nature of the assay: CEREP broad receptor screening panel. The settings on record: CPD 1 10 mM (table title), duplicate. Type of assay: binding. The procedure:
as §1

Assay [8] deals with T7, D3 (Homo sapiens, UniProt P35462).
T7 construct: CEREP
Nature of the assay: CEREP broad receptor screening panel. It counts as binding. As to conditions: CPD 1 10 µM (table title), duplicate. The procedure: as §1

Assay [9] concerns the target T8, D1 (Homo sapiens, UniProt P21728).
T8 construct: CEREP
Nature of the assay: CEREP broad receptor screening panel. Type of assay: binding. The settings on record: CPD 1 10 µM (table title), duplicate. As to the method: as §1

The target of assay [10] is T9, h5-HT4 (Homo sapiens, UniProt Q13639).
T9 construct: expressed in transfected cells
As to the kind of experiment: Radioligand binding, human cloned h5-HT4. As to conditions: agonist radioligand, n = 2, read-out: Affinity, Mean. As to the method: (§2) Binding affinities at the serotonin receptors were determined by standard radioligand-binding methods using human cloned receptors as reported in the literature ([14], [15]).

Assay [11] has as its system Male, Wistar rats. Nature of the assay: Isoproterenol-induced drinking. It counts as in vivo, rat. As to conditions: 5.6 mg/kg. As to the method: Male, Wistar rats (different from those rats used in the schedule-induced polydipsia studies) were used. They were 331 ± 11 g at the initiation of this study. Compound 1 (5.6 mg/kg, s.c.) was evaluated for its ability to reduce drinking. (±)-isoproterenol (30 μg/kg, s.c.) was given to induce drinking (n = 5–20 rat/group). Ten minutes after vehicle or (±)-isoproterenol injection, rats were given either vehicle or Compound 1 and a 60 min session began in which the rats in individual housing cages were given access to water 20 min after the second injection. The weight of the water bottle before and after the 60 min period was measured to the nearest 0.1 g. After the experiment, the animals were returned to their living cages with continuous access to food and water.

Assay [12] relates to Male, NIH Swiss mice.
The target of assay [13] is T10, h5-HT6 (Homo sapiens, UniProt P50406).
T10 construct: expressed in transfected cells
Nature of the assay: Radioligand binding, human cloned h5-HT6. As to conditions: agonist radioligand, read-out: Affinity, Mean. As to the method: as §2

Assay [14] deals with Male, Wistar rats. Nature of the assay: Deprivation-induced drinking. Type of assay: in vivo, rat. The settings on record: 18 h water deprivation, 5.6 mg/kg. The procedure: Male, Wistar rats (different from those rats used in the schedule-induced polydipsia studies) were used. They were 320 ± 15 g at the initiation of this study. Water was removed from their home cage for 18 h after which water bottles were presented to each rat in an individual housing cage in a quiet room for 60 min. The weight of the water bottle before and after the 60 min period was measured to the nearest 0.1 g. Six to eight rats were studied per dose. It is noted that this deprivation period is considered stressful. After the experiment, the animals were returned to their living cages with continuous access to food and water.

Assay [15] has as its target T11, h5-HT1E (Homo sapiens, UniProt P28566).
T11 construct: expressed in transfected cells
As to the kind of experiment: Radioligand binding, human cloned h5-HT1E. As to conditions: agonist radioligand, read-out: Affinity, Mean. As to the method: as §2

Assay [16] concerns the target T12, h5-HT1B (Homo sapiens, UniProt P28222).
T12 construct: expressed in transfected cells
As to the kind of experiment: Radioligand binding, human cloned h5-HT1B. The settings on record: agonist radioligand, read-out: Affinity, Mean. As to the method: as §2

[17] abbreviates: 10 mg/kg, 5 days of consecutive dosing.

T3 sequence (P14416 1-414 isoform P14416-2): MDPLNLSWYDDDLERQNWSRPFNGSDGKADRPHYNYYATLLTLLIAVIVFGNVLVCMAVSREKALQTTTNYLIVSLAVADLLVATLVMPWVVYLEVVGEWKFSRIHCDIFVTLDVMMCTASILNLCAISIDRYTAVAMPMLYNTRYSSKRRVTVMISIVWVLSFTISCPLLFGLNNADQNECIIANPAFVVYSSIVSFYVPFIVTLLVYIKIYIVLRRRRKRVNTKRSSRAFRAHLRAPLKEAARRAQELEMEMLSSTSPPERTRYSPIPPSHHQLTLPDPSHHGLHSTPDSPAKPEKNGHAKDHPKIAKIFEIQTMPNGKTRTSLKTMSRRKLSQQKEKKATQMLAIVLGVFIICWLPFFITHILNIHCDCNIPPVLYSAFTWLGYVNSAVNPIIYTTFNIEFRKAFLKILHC
T11 sequence (P28566 whole entry): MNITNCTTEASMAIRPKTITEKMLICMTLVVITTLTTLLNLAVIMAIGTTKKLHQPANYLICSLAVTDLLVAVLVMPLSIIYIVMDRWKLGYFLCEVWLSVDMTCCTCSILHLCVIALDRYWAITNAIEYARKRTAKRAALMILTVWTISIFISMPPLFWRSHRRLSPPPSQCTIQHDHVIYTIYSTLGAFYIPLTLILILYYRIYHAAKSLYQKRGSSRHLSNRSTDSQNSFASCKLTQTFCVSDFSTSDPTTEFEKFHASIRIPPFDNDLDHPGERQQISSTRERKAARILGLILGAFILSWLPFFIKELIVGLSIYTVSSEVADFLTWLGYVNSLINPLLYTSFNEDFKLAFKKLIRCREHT
T6 sequence (P21918 whole entry): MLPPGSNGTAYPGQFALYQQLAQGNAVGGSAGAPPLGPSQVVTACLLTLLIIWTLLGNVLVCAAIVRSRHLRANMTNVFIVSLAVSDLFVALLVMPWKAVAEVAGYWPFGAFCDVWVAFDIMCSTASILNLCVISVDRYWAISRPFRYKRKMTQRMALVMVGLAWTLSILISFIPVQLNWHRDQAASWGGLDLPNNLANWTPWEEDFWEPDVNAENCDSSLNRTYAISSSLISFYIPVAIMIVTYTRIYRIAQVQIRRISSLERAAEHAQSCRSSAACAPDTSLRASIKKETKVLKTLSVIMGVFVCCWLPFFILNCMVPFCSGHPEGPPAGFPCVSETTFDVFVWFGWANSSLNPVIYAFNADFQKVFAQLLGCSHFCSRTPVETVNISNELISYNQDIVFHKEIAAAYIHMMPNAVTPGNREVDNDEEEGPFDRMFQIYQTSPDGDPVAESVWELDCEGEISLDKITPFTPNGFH
T7 sequence (P35462 whole entry): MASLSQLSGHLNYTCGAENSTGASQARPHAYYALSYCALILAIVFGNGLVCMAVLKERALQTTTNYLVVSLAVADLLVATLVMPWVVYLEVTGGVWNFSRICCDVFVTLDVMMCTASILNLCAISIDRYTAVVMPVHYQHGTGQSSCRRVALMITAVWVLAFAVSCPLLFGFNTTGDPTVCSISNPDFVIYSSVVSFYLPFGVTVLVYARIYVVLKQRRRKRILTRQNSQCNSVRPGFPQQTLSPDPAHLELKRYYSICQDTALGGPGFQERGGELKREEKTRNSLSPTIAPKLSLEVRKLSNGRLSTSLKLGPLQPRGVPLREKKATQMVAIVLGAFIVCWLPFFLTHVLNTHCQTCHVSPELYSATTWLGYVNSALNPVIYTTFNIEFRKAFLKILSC
T12 sequence (P28222 whole entry): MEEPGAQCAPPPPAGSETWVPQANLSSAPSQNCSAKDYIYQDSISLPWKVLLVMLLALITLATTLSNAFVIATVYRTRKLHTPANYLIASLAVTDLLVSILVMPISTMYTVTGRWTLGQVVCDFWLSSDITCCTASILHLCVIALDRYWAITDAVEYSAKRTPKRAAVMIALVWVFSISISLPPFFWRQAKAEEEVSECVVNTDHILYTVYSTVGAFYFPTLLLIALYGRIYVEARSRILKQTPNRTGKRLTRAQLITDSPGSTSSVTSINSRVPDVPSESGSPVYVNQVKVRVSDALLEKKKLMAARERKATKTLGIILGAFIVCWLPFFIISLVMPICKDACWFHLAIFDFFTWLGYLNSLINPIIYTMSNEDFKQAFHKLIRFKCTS
T1 sequence (P20309 whole entry): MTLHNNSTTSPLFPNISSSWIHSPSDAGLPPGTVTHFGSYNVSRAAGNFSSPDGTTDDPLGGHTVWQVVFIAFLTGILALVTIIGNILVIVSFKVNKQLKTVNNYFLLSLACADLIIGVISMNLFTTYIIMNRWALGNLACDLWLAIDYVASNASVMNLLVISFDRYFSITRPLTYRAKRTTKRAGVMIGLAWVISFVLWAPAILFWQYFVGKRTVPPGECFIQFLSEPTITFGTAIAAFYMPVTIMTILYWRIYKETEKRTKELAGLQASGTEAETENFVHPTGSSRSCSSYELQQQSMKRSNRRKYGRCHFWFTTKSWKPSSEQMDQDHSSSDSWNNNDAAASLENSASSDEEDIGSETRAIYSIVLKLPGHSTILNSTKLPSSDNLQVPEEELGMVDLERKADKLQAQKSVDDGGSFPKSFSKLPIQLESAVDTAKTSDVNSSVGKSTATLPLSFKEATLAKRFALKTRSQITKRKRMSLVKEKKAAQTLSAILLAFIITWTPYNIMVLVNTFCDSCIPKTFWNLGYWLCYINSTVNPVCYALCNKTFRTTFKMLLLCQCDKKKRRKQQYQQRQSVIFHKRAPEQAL
T9 sequence (Q13639 whole entry): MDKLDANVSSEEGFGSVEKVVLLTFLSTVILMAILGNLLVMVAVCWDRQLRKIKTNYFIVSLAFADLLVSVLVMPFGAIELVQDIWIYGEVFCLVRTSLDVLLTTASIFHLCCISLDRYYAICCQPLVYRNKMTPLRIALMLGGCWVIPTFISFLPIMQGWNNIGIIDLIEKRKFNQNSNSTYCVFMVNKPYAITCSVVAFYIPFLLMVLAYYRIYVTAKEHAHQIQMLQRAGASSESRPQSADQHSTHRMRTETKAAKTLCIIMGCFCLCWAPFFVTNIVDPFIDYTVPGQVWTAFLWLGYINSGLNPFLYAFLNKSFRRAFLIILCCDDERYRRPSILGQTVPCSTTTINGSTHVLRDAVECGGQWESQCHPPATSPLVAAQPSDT
T10 sequence (P50406 whole entry): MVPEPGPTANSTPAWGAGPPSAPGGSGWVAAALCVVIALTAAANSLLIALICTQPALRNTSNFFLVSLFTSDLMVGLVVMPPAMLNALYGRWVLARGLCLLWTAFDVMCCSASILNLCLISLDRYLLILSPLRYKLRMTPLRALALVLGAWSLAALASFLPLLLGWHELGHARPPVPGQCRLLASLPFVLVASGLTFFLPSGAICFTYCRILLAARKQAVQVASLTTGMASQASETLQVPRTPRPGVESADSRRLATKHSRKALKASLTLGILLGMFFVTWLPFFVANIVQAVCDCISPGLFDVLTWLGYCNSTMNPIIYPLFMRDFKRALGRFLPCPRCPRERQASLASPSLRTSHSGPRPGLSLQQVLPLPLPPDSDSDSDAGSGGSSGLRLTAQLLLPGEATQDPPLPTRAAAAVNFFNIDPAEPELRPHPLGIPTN
T2 sequence (P23975 whole entry): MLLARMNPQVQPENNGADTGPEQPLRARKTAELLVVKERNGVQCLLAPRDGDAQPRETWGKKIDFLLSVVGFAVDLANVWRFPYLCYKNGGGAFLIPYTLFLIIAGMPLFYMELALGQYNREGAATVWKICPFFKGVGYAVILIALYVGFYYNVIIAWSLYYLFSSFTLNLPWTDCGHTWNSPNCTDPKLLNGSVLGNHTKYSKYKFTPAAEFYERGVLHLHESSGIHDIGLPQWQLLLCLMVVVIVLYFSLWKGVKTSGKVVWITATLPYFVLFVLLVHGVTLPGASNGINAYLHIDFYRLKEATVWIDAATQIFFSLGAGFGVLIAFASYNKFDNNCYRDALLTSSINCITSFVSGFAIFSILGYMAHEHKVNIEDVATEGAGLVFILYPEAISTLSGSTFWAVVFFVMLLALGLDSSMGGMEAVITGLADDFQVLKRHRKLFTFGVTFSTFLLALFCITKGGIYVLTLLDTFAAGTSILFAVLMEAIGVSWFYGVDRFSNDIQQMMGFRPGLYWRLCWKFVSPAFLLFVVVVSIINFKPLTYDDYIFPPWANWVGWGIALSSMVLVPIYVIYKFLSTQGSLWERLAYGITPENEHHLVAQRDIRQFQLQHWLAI
T4 sequence (P35367 whole entry): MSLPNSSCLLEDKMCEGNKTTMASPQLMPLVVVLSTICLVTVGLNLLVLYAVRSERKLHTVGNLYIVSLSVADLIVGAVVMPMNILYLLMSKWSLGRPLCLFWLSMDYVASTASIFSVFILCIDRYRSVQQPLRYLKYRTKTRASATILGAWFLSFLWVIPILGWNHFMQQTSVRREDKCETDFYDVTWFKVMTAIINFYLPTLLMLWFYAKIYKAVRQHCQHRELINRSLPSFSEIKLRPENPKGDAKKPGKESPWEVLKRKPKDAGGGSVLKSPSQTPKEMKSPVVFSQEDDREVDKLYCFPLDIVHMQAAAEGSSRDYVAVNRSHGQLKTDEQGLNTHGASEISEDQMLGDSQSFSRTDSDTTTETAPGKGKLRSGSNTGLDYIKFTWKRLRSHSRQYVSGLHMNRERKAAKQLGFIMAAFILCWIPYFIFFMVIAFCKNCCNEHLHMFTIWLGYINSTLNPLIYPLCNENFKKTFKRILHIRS

One may read the inhibition as the relative decrease from the control value, in per cent. By % Inhibition is commonly meant the relative decrease from the control value, in per cent. Turning to `C[C@H]1CN(c2ccc(C(F)(F)F)c3ccoc23)CCN1` [CPD 1, (3S)-3-methyl-1-[4-(trifluoromethyl)-7-benzofuranyl]-piperazine], the inhibition at 10 µM in assay [1] was found to be 76%; in assay [2], 74%; in assay [3], 61%; in [4], 93%; in [5] it was 105%; in assay [6], 69%. The inhibition at 10 µM came out at 82% in assay [8] and 94% in assay [9]. Moreover, in assay [7], the “% Inhibition” value was determined as 101%. Further, the Ki came to 977 nM in [10], 212 nM in [13], 1040 nM in [15] and 1110 nM in assay [16]. Besides, the “Reduction of isoproterenol-induced drinking” value in [11] (s.c.) is 77%. The “Effect on normal drinking” value in assay [11] (without isoproterenol) is listed as “did not significantly affect”. Moreover, the “Effect on marble-burying compared to vehicle over five consecutive days” value in assay [12] (setting [17]) is given as “significantly decreased”. Moreover, the “Tolerance to suppressant effect on marble-burying with repeated dosing” value in [12] (setting [17]) is recorded as “did not produce tolerance”. Moreover, in [12] (12/dose group), the “Marble-burying, minimal effective dose” value was 10 milligrams per kilogram. The “Reduction of deprivation-induced drinking” value in assay [14] was found to be 50%.

(Values after PMC5438973 (Frontiers in Psychiatry, 2017).)
